Measured values published in article PMC9482650, “Quantitative fragmentomics allow affinity mapping of interactomes” (Nature Communications, 2022).
Primed or numbered codes have the meaning given here. Ends that are not written are not given here. * marks the point of attachment. Biotin = O=C1N[C@H]2[C@H](CS[C@H]2CCCCC(=O)*)N1; ttds″ = trioxatridecan-succinamic acid linker

Columns and labels:
[1] = test system: Jurkat cell extract preys; test: PDZ-AP-MS, biotinylated MBP-PDZ baits; type: binding, human
Description: (§1) For PDZ-AP-MS experiments, PDZ domains were cloned as His6-AviTag-MBP-PDZ constructs. For co-expression with BirA, E. coli BL21(DE3) cells were co-transformed with His6-AviTag-MBP, or His6-AviTag-MBP-PDZ-coding and PET21a-BirA (Addgene #20857) plasmids. Simultaneously to IPTG induction, 50 µM biotin was added to the media. After cell harvesting, the lysis buffer was also supplemented with 50 µM biotin. Otherwise, expression and double affinity purification was identical as previously described in details.
(§2) For PBM-AP-MS experiments, 30 μl streptavidin resin was mixed with biotin or peptide at 50–60 μM concentration in 6–6.5 resin volume for 60 min to achieve resin saturation. For PDZ-AP-MS experiments, 30 μl streptavidin resin was mixed with biotinylated MBP or MBP-PDZ at 40-50 μM concentration in >1000× resin volume for 60 min to achieve resin saturation. After saturation, resins were washed a single time (ten resin volume, holdup buffer), and were depleted with biotin (1 mM biotin, 5–10 resin volume, 10 min). Finally, resins were washed two times. 0.5 ml 2 mg/ml cell lysate was added to the dry resin (1 mg total input) and were incubated at 4 °C for 2 h. Then, the beads were washed three times with 10 resin volume buffer containing: 50 mM TRIS pH 8.5, 150 mM NaCl, 1% TritonX-100, 10× complete EDTA-free protease inhibitor cocktail, 2 mM EDTA, 1 mM TCEP. Then, the beads were washed two times with ten resin volume buffer containing: 50 mM TRIS pH 8.5, 150 mM NaCl, 1 mM TCEP. Finally, captured protein was eluted from the resin in two steps and the eluted fractions were pooled. For each elution the beads were incubated for 30 min with three resin volume buffer containing: 20 mM TRIS pH8.5, 100 mM NaCl, 500 μM TCEP, 8 M Urea. Between each step, the beads were separated by mild centrifugation and the supernatant was removed by gentle pipetting.
(§3) The samples were precipitated with TCA 20% overnight at 4 °C and centrifuged at 14,000 rpm for 10 min at 4 °C. The protein pellets were washed twice with 1 mL cold acetone and air dried. The protein extracts were solubilized in urea 8 M, reduced with 5 mM TCEP for 30 min, and alkylated with 10 mM iodoacetamide for 30 min in the dark. Double digestion was performed at 37 °C with 500 ng endoproteinase Lys-C for 4 h, followed by fourfold dilution and an overnight digestion with 500 ng trypsin. Peptide mixtures were then desalted on C18 spin-column and dried on Speed-Vacuum.
(§4) Samples were analyzed using an Ultimate 3000 nano-RSLC (Thermo Scientific, San Jose California) coupled in line with a LTQ-Orbitrap ELITE mass spectrometer via a nano-electrospray ionization source (Thermo Scientific, San Jose California). […]

HaCat cell extract preys = test: PDZ-AP-MS, biotinylated MBP-PDZ baits; type: binding, human
Description: as §1, §2, §3, §4

CASK [2] = test: PBM-AP-MS from HaCat extract; type: binding, Homo sapiens; details: prey CASK (O14936), PBM bait vs biotin control (Biot03)
MAGI1 = test: PBM-AP-MS from Jurkat extract; type: binding, Homo sapiens
Description: as §2
(§5) Proteins were identified by database searching using SequestHT (Thermo Fisher Scientific) with Proteome Discoverer 2.4 software (PD2.4, Thermo Fisher Scientific) on human FASTA database downloaded from SwissProt (reviewed, release 2020_11_27, 20304 entries, https://www.uniprot.org/). Precursor and fragment mass tolerances were set at 7 ppm and 0.6 Da respectively, and up to two missed cleavages were allowed. Oxidation (M, +15.995 Da) was set as variable modification, and Carbamidomethylation (C, +57.021 Da) as fixed modification. Peptides and proteins were filtered with a false discovery rate at 1%. Label-free quantification was based on the extracted ion chromatography intensity of the peptides. All samples were measured in technical triplicates. The measured extracted ion chromatogram (XIC) intensities were normalized based on median intensities of the entire dataset to correct minor loading differences. For statistical tests and enrichment calculations, not detectable intensity values were treated with an imputation method, where the missing values were replaced by random values similar to the 10% of the lowest intensity values present in the entire dataset. Unpaired two-tailed T-test, assuming equal variance, were performed on obtained log2 XIC intensities. The detection threshold for enriched proteins in AP-MS experiments were analyzed above twofold enrichment with <0.01 P value. Then, proteins with PDZ-domains or PBMs were extracted from the list of enriched proteins. In case only a specific isoform of the detected protein contains a PBM, the identified peptide fragments were manually checked to check which isoform(s) were most likely detected. All raw LC-MS/MS data (from 165 runs) have been deposited to the ProteomeXchange via the PRIDE database with identifier PXD027743.

SCRIB [3] = test: PBM-AP-MS from Jurkat extract; type: binding, Homo sapiens
Description: as §2, §5

LIN7C [4] = test: PBM-AP-MS from Jurkat extract; type: binding, Homo sapiens
Description: as §2, §5

DLG1 = test: PBM-AP-MS from Jurkat extract; type: binding, Homo sapiens
Description: as §2, §5

LIN7C [5] = test: PBM-AP-MS from HaCat extract; type: binding, Homo sapiens; details: prey LIN7C (Q9NUP9), PBM bait vs biotin control (Biot03)
MPP7 [6] = test: PBM-AP-MS from HaCat extract; type: binding, Homo sapiens; details: prey MPP7 (Q5T2T1), PBM bait vs biotin control (Biot03)
MAGI3 = test: PBM-AP-MS from HaCat extract; type: binding, Homo sapiens; details: prey MAGI3 (Q5TCQ9), PBM bait vs biotin control (Biot03)
Text: (§6) Supplement 41467_2022_33018_MOESM5_ESM.xlsx, sheet "HaCat HPV59-E6" | column: -LOG(P-value); Difference log2; Ratio HPV59E6/Biot03

MPP5 [7] = test: PBM-AP-MS from HaCat extract; type: binding, Homo sapiens; details: prey MPP5 (Q8N3R9), PBM bait vs biotin control (Biot03)
Text: as §6

MPP5 [8] = test: PBM-AP-MS from Jurkat extract; type: binding, Homo sapiens; details: prey MPP5 (Q8N3R9), PBM bait vs biotin control
Text: Supplement 41467_2022_33018_MOESM5_ESM.xlsx, sheet "Jurkat HPV59-E6" | column: -LOG(P-Value); Difference log2; Ratio HPV59/biot

LIN7C [9] = test: PBM-AP-MS from HeLa extract; type: binding, Homo sapiens; details: prey LIN7C (Q9NUP9), PBM bait vs biotin control
LGALS7 = test: PBM-AP-MS from Jurkat extract; type: binding, Homo sapiens; details: prey LGALS7 (P47929), PBM bait vs biotin control
Text: Supplement 41467_2022_33018_MOESM5_ESM.xlsx, sheet "Jurkat HPV82-E6" | column: -LOG(P-Value); Difference log2; Ratio HPV82/biot

SCRIB [10] = test: PBM-AP-MS from HeLa extract; type: binding, Homo sapiens; details: prey SCRIB (Q14160), PBM bait vs biotin control
MPP7 [11] = test: PBM-AP-MS from HeLa extract; type: binding, Homo sapiens; details: prey MPP7 (Q5T2T1), PBM bait vs biotin control
Text: (§7) Supplement 41467_2022_33018_MOESM5_ESM.xlsx, sheet "HeLa HPV82-E6" | column: -LOG(P-Value); Difference log2; Ratio HPV82E6/Biot

KRT83 = test: PBM-AP-MS from HeLa extract; type: binding, Homo sapiens; details: prey KRT83 (P78385), PBM bait vs biotin control
Text: as §7

CPVL = test: PBM-AP-MS from HeLa extract; type: binding, Homo sapiens; details: prey CPVL (Q9H3G5), PBM bait vs biotin control
SYNJ2BP = test: PBM-AP-MS from HaCat extract; type: binding, Homo sapiens; details: prey SYNJ2BP (P57105), PBM bait vs biotin control (Biot03)
SLC9A3R2 = test: PBM-AP-MS from HaCat extract; type: binding, Homo sapiens; details: prey SLC9A3R2 (Q15599), PBM bait vs biotin control (Biot03)
CASK [12] = test: PBM-AP-MS from Jurkat extract; type: binding, Homo sapiens; details: Jurkat lysate
Description: as §2, §5

PDZK1 = test: PBM-AP-MS from HeLa extract; type: binding, Homo sapiens; details: prey PDZK1 (Q5T2W1), PBM bait vs biotin control
SNTB2 = test: PBM-AP-MS from HeLa extract; type: binding, Homo sapiens; details: prey SNTB2 (Q13425), PBM bait vs biotin control
[13] = Jurkat extract, prey MAGI1 (Q96QZ7), PBM bait vs biotin control
[14] = Jurkat extract, prey SCRIB (Q14160), PBM bait vs biotin control
[15] = Jurkat extract, prey LIN7C (Q9NUP9), PBM bait vs biotin control
[16] = Jurkat extract, prey DLG1 (Q12959), PBM bait vs biotin control
[17] = fold enrichment of prey vs biotin control resin, Jurkat lysate
[18] = prey enrichment on PBM bait resin vs biotin control resin, Jurkat lysate, technical triplicates

Row | Substance | Difference log2 (CASK [2]) | Ratio bait/Biot03 (CASK [2]) | Difference log2 (MAGI1; [13]) | Ratio bait/biot (MAGI1; [13]) | Difference log2 (SCRIB [3]; [14]) | Ratio bait/biot (SCRIB [3]; [14]) | Difference log2 (LIN7C [4]; [15]) | Ratio bait/biot (LIN7C [4]; [15]) | Difference log2 (DLG1; [16]) | Ratio bait/biot (DLG1; [16]) | Difference log2 (LIN7C [5]) | Ratio bait/Biot03 (LIN7C [5]) | Difference log2 (MPP7 [6]) | Ratio bait/Biot03 (MPP7 [6]) | Difference log2 (LIN7C [9]) | Ratio bait/biot (LIN7C [9]) | Difference log2 (SCRIB [10]) | Ratio bait/biot (SCRIB [10]) | Difference log2 (CPVL) | Ratio bait/biot (CPVL) | other results
1 | ANXA2 | – | – | – | – | – | – | – | – | – | – | – | – | – | – | – | – | – | – | – | – | Difference log2 ([1]; bait SCRIB_2 PDZ vs MBP, enrichment of prey): 5.895; Ratio SCRIB_2/MBP ([1]; bait SCRIB_2 PDZ, fold change of prey): 59.5253
2 | EXOC1 | – | – | – | – | – | – | – | – | – | – | – | – | – | – | – | – | – | – | – | – | Difference log2 (HaCat cell extract preys; bait DLG1_2 PDZ vs MBP, enrichment of prey): 4.458; Ratio DLG1_2/MBP (HaCat cell extract preys; bait DLG1_2 PDZ, fold change of prey): 21.9853
3 | HPV59-E6 ({Biotin-ttds″}-QRQARSETLV) | 7.278 | 155.163 | 6.509 | 91.0533 | 4.363 | 20.5739 | 5.541 | 46.5688 | 9.078 | 540.448 | 8.47 | 354.524 | 5.592 | 48.2208 | – | – | – | – | – | – | Difference log2 (MAGI3): 2.908; Ratio bait/Biot03 (MAGI3): 7.505; Difference log2 (MPP5 [7]): 3.6952; Ratio bait/Biot03 (MPP5 [7]): 12.9528; Difference log2 (MPP5 [8]): 4.755; Ratio bait/biot (MPP5 [8]): 26.9941
4 | HPV82-E6 ({Biotin-ttds″}-PPRQRSETQV) | – | – | 5.746 | 53.6695 | 7.318 | 159.61 | 5.109 | 34.5003 | 8.838 | 457.64 | – | – | – | – | 7.066 | 134.006 | 7.349 | 163.074 | 3.939 | 15.3339 | Difference log2 (LGALS7): 4.513; Ratio bait/biot (LGALS7): 22.8362; Difference log2 (MPP7 [11]): 3.556; Ratio bait/biot (MPP7 [11]): 11.7654; Difference log2 (KRT83): 3.605; Ratio bait/biot (KRT83): 12.1643
5 | SSRTRRETQL [HPV16-E6] | 6.666 | 101.558 | – | – | – | – | – | – | – | – | 8.385 | 334.203 | 5.9997 | 63.9865 | 7.182 | 145.232 | 7.71 | 209.394 | 4.342 | 20.282 | Difference log2 (SYNJ2BP): 4.095; Ratio bait/Biot03 (SYNJ2BP): 17.0893; Difference log2 (SLC9A3R2): 3.853; Ratio bait/Biot03 (SLC9A3R2): 14.4499; Ratio bait/biot (MAGI1; [17]): 36.8169; Difference log2 (MAGI1; [18]): 5.2023; Ratio bait/biot (SCRIB [3]; [17]): 256.729; Difference log2 (SCRIB [3]; [18]): 8.0041; Ratio bait/biot (LIN7C [4]; [17]): 32.0459; Difference log2 (LIN7C [4]; [18]): 5.002; Ratio bait/biot (CASK [12]; fold enrichment of prey vs biotin control resin): 11.3007; Difference log2 (CASK [12]; prey enrichment on PBM bait resin vs biotin control resin, technical triplicates): 3.498; Ratio bait/biot (DLG1; [17]): 502.402; Difference log2 (DLG1; [18]): 8.9727; Difference log2 (PDZK1): 4.4; Ratio bait/biot (PDZK1): 21.1168; Difference log2 (SNTB2): 5.25; Ratio bait/biot (SNTB2): 38.0503
